Tests used:
OSC = biological target: T1, OSC (Homo sapiens, UniProt P48449); details: value in parentheses not explained in the patent; cited from earlier work
T1 sequence (P48449 1-732): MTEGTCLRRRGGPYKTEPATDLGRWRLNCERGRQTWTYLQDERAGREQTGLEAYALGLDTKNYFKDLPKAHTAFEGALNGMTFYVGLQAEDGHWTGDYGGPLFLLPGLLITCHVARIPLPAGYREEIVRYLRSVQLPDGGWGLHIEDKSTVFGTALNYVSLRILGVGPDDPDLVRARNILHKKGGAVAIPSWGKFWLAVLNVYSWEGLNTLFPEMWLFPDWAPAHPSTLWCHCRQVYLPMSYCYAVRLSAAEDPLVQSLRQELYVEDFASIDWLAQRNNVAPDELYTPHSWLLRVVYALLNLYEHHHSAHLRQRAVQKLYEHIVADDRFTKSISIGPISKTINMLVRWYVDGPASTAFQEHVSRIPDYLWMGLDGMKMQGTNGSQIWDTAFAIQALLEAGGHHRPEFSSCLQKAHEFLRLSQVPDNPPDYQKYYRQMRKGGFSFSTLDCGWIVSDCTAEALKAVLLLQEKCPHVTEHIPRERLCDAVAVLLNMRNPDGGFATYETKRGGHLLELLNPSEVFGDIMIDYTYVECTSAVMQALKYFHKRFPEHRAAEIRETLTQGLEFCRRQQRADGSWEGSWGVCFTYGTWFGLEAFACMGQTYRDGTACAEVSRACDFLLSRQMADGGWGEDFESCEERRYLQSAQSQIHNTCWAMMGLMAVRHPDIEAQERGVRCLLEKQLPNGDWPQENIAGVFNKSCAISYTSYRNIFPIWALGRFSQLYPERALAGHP

[1] = system: T47-D breast cancer cells; experiment: SRB cell viability assay, T47-D; format: cell-based; details: 24 hours, dose-dependent, FIG. 2B
Description: (§1) The sulforhodamine B (SRB) assay was employed to evaluate the effect of OSC inhibitor Ro 48-8071 on viability of breast cancer and normal mammary gland cells with slight modification of the original procedure established at NCI. Accordingly, the cells were seeded in 96-well plates in 100 μl culture medium and incubated overnight at 37° C. with 5% CO2. […] The surviving or adherent cells were fixed in situ by withdrawing the growth medium and adding 100 μl of PBS and 100 μl of 50% cold trichloroacetic acid and then incubating at 4° C. for 1 h. The surviving cells were washed with ice-water, dried at room temperature (RT), and then stained with 50 μl 4% SRB for 8 min at RT. Unbound dye was removed by washing 5 times with cold 1% acetic acid, and the plates were dried at RT. Bound stain was solubilized with 150 μl 10 mM Tris buffer, and absorbance of samples were measured at 520 nm with a SpecTRA MAX 190 microplate reader (Sunnyvale, Calif.). In these experiments on BT-474, T47-D, and AG11132A cell lines, six wells were used for each concentration, and each experiment was performed at least twice.
(§2) The effect of OSC inhibition was evaluated in additional cancer cell lines as well. Cancer cell lines may be purchased from ATCC (Manassas, Va.). The SRB assay has been employed for determination of the inhibitory effects of RO 48-8071 on growth of different cancer cells. Cells were seeded into 96-well plates and incubated overnight at 37° C. with 5% CO2. The culture medium was removed after 24 hours, and cells were washed with DMEM/F12 medium and then treated with various concentrations of RO 48-8071 in 5% FBS culture medium for 24 and 48 hours. Surviving or adherent cells were fixed in situ by withdrawing the growth medium, adding 100 μl PBS and 100 μl 50% trichloroacetic acid and then incubating at 4° C. for one hour. Cells were washed with ice-cold water, dried at room temperature (RT), and then stained with 50 μl 4% SRB for eight minutes at RT. Unbound dye was removed by washing with cold 1% acetic acid for five times, and plates were dried at RT. Bound stain was solubilized with 150 μl 10 mM Tris buffer and absorbance of samples was read at 520 nm with a SpecTRA MAX 190 microplate reader (Molecular Devices, Sunnyvale, Calif.). Six wells were used for each concentration, and each experiment was performed two to three times.
Effect of RO 48-8071 on breast cancer cell line T47-D viability. […] The culture mediums employed 10% FBS DMEM/F12 for culture and 5% FBS DMEM/F12 for treatment.

[2] = system: BT-474 breast cancer cells; experiment: SRB cell viability assay, BT-474; format: cell-based, human; details: BT-474, 24 hours, dose-dependent, FIG. 2A
Description: as §1, §2
Effect of RO 48-8071 on breast cancer cell line BT-474 viability. […] The culture mediums employed 10% FBS DMEM/F12 for culture and 5% FBS DMEM/F12 for treatment.

SMILES	IC50 (OSC) [nM]	effect on cell viability (SRB) [1]	effect on cell viability (SRB) [2]
CN(CCCCOc1ccc(C(=O)c2ccc(Br)cc2)cc1)C1CC1	19		
C=CCC(C)CCCCCCOc1ccc2c(-c3ccc(Br)cc3)nn(C)c2c1 (stereo not shown)	19.6		
O=C(c1ccc(Cl)cc1)N1CCC(Cc2ccc(C3=NCCO3)cc2)CC1	36		
O=C1C2CCN(CC2)C1(CO)CO [PRIMA-1, 2,2-bis(hydroxymethyl)-3-quinuclidinone]		significantly inhibit the viability	significantly inhibit the viability
CCN(CC)CCO[C@H]1CC[C@@]2(C)C(=CC[C@@H]3[C@@H]2CC[C@]2(C)C(=O)CC[C@@H]32)C1 [U18666A, 3-beta-(2-(diethylamino)ethoxy)androst-5-en-17-one]		significantly inhibit the viability	significantly inhibit the viability

From patent US10143686B2, “Oxidosqualene cyclase as a protein target for anticancer therapeutics” (The Curators of the University of Missouri, priority 2010, dated 2018)
